# What was measured:
# [1] = target: human S1P1 receptors (Homo sapiens (Human), UniProt P21453); assay: Human S1P1 Receptor Calcium FLIPR Antagonist Assay (HeLa Gα16 S1P1); assay type: cell-based; settings: relative antagonism vs probing agonist GNF-AC-1 at EC80, HeLa-S1P1/Gα16 cells
# Source text: Human S1P1 Receptor Calcium FLIPR Antagonist Assay
# The assay measures intracellular changes of Ca^2+ mediated by the synthetic probing agonist 3-{[2-(2-Trifluoromethyl-biphenyl-4-yl)-benzo[b]thiophen-5-ylmethyl]-amino}-propionic acid (GNF-AC-1) in the HeLa-S1P1/Gα16 cell clone 1: HeLa (human cervix carcinoma, ATCC CCL2) cells stably expressing N-terminally myc-tagged human S1P1 receptors (GenBank™ accession No. NM_001400; UNIPROT P21453) and promiscuous Gα16 protein (GenBank™ accession number M63904, Swissprot P30679) are cultured at 37° C., 5% CO2, and 95% relative humidity. The cells are plated in 384 well black plates (10′000 cells per well). After 24 hours the cells are loaded with Fluo-4-AM (1.6 μM in HBSS and 2.5 mM probenicid) for 1 hour at 37° C. After washing, the cells are transferred to the FLIPR. The test compounds are added at different concentrations (≦100 μM) in HBSS in the presence of 0.1% BSA and changes in fluorescence are recorded (indication of agonism). The probing agonist is added 20-30 minutes afterwards to the wells at a concentration giving 80% of the maximal activity (EC80). After each addition, time points are collected as follows: 20 time points (2 seconds) before the addition of the agonist (Fmin) and 60 time points (1 or 2 seconds) after the addition of the probing agonist. This allows the determination of the maximal fluorescence (Fmax). The ratio (Fmax−Fmin)/Fmin is plotted against the log of the concentration of the test compounds and the IC50 (relative antagonism) is calculated using the XLfit-4 software. […] A concentration-response curve of the probing agonist is determined on each plate in parallel.
# [2] = test system: peripheral lymphocyte counts; assay: Measurement of circulating lymphocytes after oral administration (mice); assay type: in vivo; settings: Mus musculus, C57BL/6NCrl mice, 30 mg/kg p.o., 24 hours, vs mean counts of untreated animals, mean ± STDEV, read-out: Residual Lymphocyte Counts 24 hours after p.o. dosing
# Protocol: (§1) The compounds of the invention, e.g. compounds of formula (I) typically induce the depletion of blood lymphocyte as may be determined in the assay described below. Moreover, compounds of the invention, e.g. compounds of formula (I) are typically efficacious in the said assay also when administered via the per oral route of administration.
# (§2) Measurement of Circulating Lymphocytes:
# (§3) The test compounds (or salts thereof) are dissolved in a vehicle such as water, saline, PEG (polyethylene glycol) 200, or PBS (phosphate buffered saline). Adult mice (C57BU6NCrl strain, female, 18-20 g) or rats (Lewis strain, male, 6-12 weeks old) are administered up to 60 mg/kg of the test compounds in 10 ml/kg (C57BU6NCrl mice) or 2 ml/kg (Lewis rats) vehicle via per oral application. The vehicle or a reference salt and FTY720 (0.3 mg/kg) are used as negative and positive controls, respectively. Blood is collected from the sublingual vein at single time points, e.g. 14 or 24 hours after the test compound administration, under short isoflurane anesthesia. Two to three animals are used in each group. Whole blood samples are subjected to hematology analysis. Peripheral lymphocyte counts are determined using an automated analyzer. The Haemathology System uses a combination of light scatter, cytochemical staining and nuclear density on two independent channels to measure the total and differential white cell counts. The reduction of lymphocytes provoked by each test compound is calculated by comparing the lymphocyte counts measured after each treatment to the mean lymphocyte counts measured in five to eight untreated mice or rats, respectively. The data are presented as mean±STDEV.
# [3] = test system: peripheral lymphocyte counts; assay: Measurement of circulating lymphocytes after oral administration (rats); assay type: in vivo; settings: Lewis rats, 30 mg/kg p.o., vs mean counts of untreated animals, mean ± STDEV
# Protocol: as §1, §2, §3
# Sequence of human S1P1 receptors (P21453 whole entry): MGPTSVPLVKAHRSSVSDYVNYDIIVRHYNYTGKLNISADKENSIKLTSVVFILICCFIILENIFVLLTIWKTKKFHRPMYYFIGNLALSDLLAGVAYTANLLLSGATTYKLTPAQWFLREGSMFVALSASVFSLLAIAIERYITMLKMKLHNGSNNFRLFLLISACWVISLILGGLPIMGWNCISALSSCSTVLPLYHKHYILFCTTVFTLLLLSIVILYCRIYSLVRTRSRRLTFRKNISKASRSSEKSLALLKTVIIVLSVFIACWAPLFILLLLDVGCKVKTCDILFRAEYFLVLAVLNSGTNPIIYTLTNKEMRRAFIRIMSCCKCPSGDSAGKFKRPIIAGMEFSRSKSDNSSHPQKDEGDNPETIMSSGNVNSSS
IC50 [1] [nM],SMILES,response vs control in vivo at 30 mg/kg [2] [%],Residual Lymphocyte Counts 24 hours after p.o. dosing [3]
0.9,"Cc1cc([C@H](Nc2ccc(C)c(CN3CC[C@@H](C(=O)O)C3)c2C)C(F)(F)F)ccc1Cl [Example 30, (R)-1-{3-[(S)-1-(4-Chloro-3-methyl-phenyl)-2,2,2-trifluoro-ethylamino]-2,6-dimethyl-benzyl}-pyrrolidine-3-carboxylic acid]",19.4,26.9 ± 13.0%
0.8,"CC[C@@H](Nc1ccc(C)c(CN2CC[C@@H](C(=O)O)C2)c1C)c1ccc(Cl)c(C)c1 [Example 32, (R)-1-{3-[(R)-1-(4-Chloro-3-methyl-phenyl)-propylamino]-2,6-dimethyl-benzyl}-pyrrolidine-3-carboxylic acid]",17,–
0.6,"CC[C@@H](Nc1ccc(C)c(CN2CC(C(=O)O)C2)c1C)c1ccc(Cl)c(C)c1 [Example 33, 1-{3-[(R)-1-(4-Chloro-3-methyl-phenyl)-propylamino]-2,6-dimethyl-benzyl}-azetidine-3-carboxylic acid]",16.2,–
0.8,"CCc1ccc(N[C@@H](c2ccc(Cl)c(C)c2)C(F)(F)F)cc1CN1CC[C@@H](C(=O)O)C1 [Example 34, (R)-1-{5-[(S)-1-(4-Chloro-3-methyl-phenyl)-2,2,2-trifluoro-ethylamino]-2-ethyl-benzyl}-pyrrolidine-3-carboxylic acid]",24.2,–
1.3,"CC[C@@H](Nc1ccc(C)c(CN2CC(C(=O)O)C2)c1)c1cc(C)c(Cl)c(C)c1 [Example 41, 1-{5-[(R)-1-(4-Chloro-3,5-dimethyl-phenyl)-propylamino]-2-methyl-benzyl}-azetidine-3-carboxylic acid]",20.2,–
1,"CC[C@@H](Nc1ccc(C)c(CN2CC[C@@H](C(=O)O)C2)c1)c1cc(C)c(Cl)c(C)c1 [Example 42, (R)-1-{5-[(R)-1-(4-Chloro-3,5-dimethyl-phenyl)-propylamino]-2-methyl-benzyl}-pyrrolidine-3-carboxylic acid]",19.4,22.2% ± 6.7
0.8,"CC[C@@H](Nc1ccc(Cl)c(CN2CC[C@@H](C(=O)O)C2)c1)c1cc(C)c(Cl)c(C)c1 [Example 43, (R)-1-{2-Chloro-5-[(R)-1-(4-chloro-3,5-dimethyl-phenyl)-propylamino]-benzyl}-pyrrolidine-3-carboxylic acid]",21.8,–
0.5,"CC[C@@H](Nc1cc(CN2CC[C@@H](C(=O)O)C2)c(Cl)cn1)c1ccc(Cl)c(C)c1 [Example 55, (R)-1-{5-Chloro-2-[(R)-1-(4-chloro-3-methyl-phenyl)-propylamino]-pyridin-4-ylmethyl}-pyrrolidine-3-carboxylic acid]",43.6,–
1.6,"CC[C@@H](Nc1ccc(Cl)c(CN2CC(C(=O)O)C2)c1)c1cc(C)c(Cl)c(C)c1 [Example 61, 1-{2-Chloro-5-[(R)-1-(4-chloro-3,5-dimethyl-phenyl)-propylamino]-benzyl}-azetidine-3-carboxylic acid]",16.2,–
0.9,"CC[C@@H](Nc1ccc(Cl)c(CN2CC(C(=O)O)C2)c1)c1ccc(Cl)c(C)c1 [Example 62, 1-{2-Chloro-5-[(R)-1-(4-chloro-3-methyl-phenyl)-propylamino]-benzyl}-azetidine-3-carboxylic acid]",31.5,–
0.2,"Cc1cc([C@H](Nc2ccc(Cl)c(CN3CC(C)(C(=O)O)C3)c2)C(F)(F)F)ccc1Cl [Example 65, 1-{2-Chloro-5-[(S)-1-(4-chloro-3-methyl-phenyl)-2,2,2-trifluoro-ethylamino]-benzyl}-3-methyl-azetidine-3-carboxylic acid]",22.6,–
0.1,"Cc1cc([C@H](Nc2ccc(C)c(CN3CC(C(=O)O)C3)c2)C(F)(F)F)ccc1Cl [Example 70, 1-{5-[(S)-1-(4-Chloro-3-methyl-phenyl)-2,2,2-trifluoro-ethylamino]-2-methyl-benzyl}-azetidine-3-carboxylic acid]",20.2,–
0.4,"Cc1cc([C@H](Nc2cc(CN3CC[C@@H](C(=O)O)C3)c(Cl)cn2)C(F)(F)F)ccc1Cl [Example 84, (R)-1-{5-Chloro-2-[(S)-1-(4-chloro-3-methyl-phenyl)-2,2,2-trifluoro-ethylamino]-pyridin-4-ylmethyl}-pyrrolidine-3-carboxylic acid]",–,16.8% ± 7.2
0.9,"Cc1cc([C@H](Nc2cc(CNCCC(=O)O)c(Cl)cn2)C(F)(F)F)ccc1Cl [Example 85, 3-({5-Chloro-2-[(S)-1-(4-chloro-3-methyl-phenyl)-2,2,2-trifluoro-ethylamino]-pyridin-4-ylmethyl}-amino)-propionic acid]",–,11.6% ± 0.3

# Source: patent US8791100B2 (Novartis AG, priority 2010, dated 2014)
